# Measurements published in ChEMBL document CHEMBL1157194, “Recent advances in selective alpha1-adrenoreceptor antagonists as antihypertensive agents” (Bioorg Med Chem, 2008).
# What was measured:
# [1] = Binding affinity to adrenergic alpha1 receptor
# [2] = Binding affinity to human cloned dopamine D4.7 receptor
# [3] = biological target: T1, D(4) dopamine receptor (Homo sapiens, UniProt P21917); assay: Binding affinity to human cloned dopamine D4.4 receptor
# T1 sequence (P21917 whole entry): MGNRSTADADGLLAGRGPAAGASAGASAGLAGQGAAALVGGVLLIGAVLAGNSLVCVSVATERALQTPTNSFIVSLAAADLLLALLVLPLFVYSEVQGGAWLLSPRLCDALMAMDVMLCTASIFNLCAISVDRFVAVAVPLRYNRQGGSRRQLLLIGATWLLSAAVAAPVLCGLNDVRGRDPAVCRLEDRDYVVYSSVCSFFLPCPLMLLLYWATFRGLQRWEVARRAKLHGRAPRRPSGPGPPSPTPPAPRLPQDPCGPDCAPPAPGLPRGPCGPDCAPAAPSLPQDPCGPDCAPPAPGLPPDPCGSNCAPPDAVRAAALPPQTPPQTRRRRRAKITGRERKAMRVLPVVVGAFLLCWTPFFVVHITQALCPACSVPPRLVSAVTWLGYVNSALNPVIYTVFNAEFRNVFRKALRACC
# [4] = Binding affinity to human cloned dopamine D4.2 receptor
# [5] = biological target: 5-hydroxytryptamine receptor 2A (Homo sapiens, UniProt P28223); assay: Binding affinity to 5HT2A
# Chain of 5-hydroxytryptamine receptor 2A (P28223 whole entry): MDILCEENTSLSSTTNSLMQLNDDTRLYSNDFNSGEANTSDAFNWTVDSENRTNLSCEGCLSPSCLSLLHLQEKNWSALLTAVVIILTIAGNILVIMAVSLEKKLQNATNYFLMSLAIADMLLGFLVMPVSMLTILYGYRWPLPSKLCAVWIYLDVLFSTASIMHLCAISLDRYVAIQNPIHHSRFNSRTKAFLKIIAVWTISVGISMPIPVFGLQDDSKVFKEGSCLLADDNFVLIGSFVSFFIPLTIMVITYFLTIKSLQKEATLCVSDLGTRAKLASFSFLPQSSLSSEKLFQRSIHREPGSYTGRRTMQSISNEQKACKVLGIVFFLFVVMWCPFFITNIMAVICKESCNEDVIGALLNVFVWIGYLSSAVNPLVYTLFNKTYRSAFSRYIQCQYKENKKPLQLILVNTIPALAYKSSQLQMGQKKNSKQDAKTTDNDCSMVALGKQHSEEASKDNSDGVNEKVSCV
# [6] = biological target: D(3) dopamine receptor (Homo sapiens, UniProt P35462); assay: Binding affinity to dopamine D3 receptor
# Chain of D(3) dopamine receptor (P35462 whole entry): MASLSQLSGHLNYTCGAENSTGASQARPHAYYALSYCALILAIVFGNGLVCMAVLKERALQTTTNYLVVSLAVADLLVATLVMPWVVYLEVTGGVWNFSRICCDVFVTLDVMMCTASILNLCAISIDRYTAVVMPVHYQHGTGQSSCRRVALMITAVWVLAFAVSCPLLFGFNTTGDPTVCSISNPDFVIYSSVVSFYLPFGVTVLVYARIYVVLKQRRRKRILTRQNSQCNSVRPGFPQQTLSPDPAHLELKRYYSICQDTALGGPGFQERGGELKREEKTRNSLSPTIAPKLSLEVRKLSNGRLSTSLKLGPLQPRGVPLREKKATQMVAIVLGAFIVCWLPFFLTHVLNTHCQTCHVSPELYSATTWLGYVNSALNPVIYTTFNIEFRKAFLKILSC
# [7] = Binding affinity to adrenergic alpha2 receptor
# [8] = biological target: T2, 5-hydroxytryptamine receptor 1A (Homo sapiens, UniProt P08908); assay: Binding affinity to 5HT1A
# T2 sequence (P08908 whole entry): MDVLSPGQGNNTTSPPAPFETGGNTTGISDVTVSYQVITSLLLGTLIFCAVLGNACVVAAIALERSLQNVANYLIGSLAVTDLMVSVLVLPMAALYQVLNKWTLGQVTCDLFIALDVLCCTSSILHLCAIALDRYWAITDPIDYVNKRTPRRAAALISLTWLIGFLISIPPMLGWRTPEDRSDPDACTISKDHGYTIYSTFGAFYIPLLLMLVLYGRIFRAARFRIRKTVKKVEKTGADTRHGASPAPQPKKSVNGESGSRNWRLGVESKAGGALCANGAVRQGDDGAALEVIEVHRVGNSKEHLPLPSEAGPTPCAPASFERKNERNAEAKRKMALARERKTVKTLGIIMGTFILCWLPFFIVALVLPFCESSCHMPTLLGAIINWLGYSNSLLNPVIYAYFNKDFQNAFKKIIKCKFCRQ
# [9] = Binding affinity to 5HT2
# [10] = biological target: 5-hydroxytryptamine receptor 1B (Homo sapiens, UniProt P28222); assay: Binding affinity to 5HT1B
# Chain of 5-hydroxytryptamine receptor 1B (P28222 whole entry): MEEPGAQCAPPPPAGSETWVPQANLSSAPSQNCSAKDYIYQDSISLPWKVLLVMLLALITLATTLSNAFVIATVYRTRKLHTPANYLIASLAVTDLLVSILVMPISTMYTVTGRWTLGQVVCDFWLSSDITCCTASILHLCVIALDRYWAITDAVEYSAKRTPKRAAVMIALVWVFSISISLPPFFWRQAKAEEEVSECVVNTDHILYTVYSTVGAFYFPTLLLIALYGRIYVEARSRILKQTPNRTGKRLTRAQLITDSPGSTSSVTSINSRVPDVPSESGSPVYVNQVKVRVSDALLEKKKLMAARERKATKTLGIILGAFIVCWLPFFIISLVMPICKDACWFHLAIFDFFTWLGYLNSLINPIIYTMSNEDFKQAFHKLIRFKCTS
# [11] = biological target: D(2) dopamine receptor (Homo sapiens, UniProt P14416); assay: Binding affinity to dopamine D2 receptor
# Chain of D(2) dopamine receptor (P14416 whole entry): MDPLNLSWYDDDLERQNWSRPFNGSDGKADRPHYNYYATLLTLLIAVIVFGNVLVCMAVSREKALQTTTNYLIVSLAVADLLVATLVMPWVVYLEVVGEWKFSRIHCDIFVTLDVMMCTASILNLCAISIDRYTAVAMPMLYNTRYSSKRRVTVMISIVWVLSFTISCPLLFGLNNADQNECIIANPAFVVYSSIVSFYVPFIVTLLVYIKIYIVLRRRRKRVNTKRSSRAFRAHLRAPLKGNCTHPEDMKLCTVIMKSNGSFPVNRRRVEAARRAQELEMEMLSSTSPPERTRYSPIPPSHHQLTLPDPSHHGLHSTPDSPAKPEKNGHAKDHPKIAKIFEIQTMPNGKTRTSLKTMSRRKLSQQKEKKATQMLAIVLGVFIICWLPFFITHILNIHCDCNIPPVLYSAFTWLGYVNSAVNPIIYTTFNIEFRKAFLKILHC
# [12] = biological target: T3, Alpha-1A adrenergic receptor (Homo sapiens, UniProt P35348); assay: Binding affinity to adrenergic alpha1A receptor
# T3 sequence (P35348 whole entry): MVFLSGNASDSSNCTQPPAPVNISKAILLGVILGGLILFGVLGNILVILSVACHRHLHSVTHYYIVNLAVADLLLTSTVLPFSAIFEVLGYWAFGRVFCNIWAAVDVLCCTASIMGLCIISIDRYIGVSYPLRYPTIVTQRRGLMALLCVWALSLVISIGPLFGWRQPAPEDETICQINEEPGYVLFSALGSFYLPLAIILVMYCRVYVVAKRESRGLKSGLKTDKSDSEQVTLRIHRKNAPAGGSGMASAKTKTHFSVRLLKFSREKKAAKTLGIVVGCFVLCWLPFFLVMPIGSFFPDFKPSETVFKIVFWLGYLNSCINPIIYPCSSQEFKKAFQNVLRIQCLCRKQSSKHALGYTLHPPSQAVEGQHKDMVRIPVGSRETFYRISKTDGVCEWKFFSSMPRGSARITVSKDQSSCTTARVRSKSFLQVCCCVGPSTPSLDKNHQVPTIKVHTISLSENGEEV
# [13] = Antagonist activity at adrenergic alpha1 receptor; type: functional
# [14] = biological target: T4, Alpha-1D adrenergic receptor (Homo sapiens) (UniProt P25100); assay: Antagonist activity at adrenergic Alpha-1D receptor; type: functional
# T4 sequence (whole entry): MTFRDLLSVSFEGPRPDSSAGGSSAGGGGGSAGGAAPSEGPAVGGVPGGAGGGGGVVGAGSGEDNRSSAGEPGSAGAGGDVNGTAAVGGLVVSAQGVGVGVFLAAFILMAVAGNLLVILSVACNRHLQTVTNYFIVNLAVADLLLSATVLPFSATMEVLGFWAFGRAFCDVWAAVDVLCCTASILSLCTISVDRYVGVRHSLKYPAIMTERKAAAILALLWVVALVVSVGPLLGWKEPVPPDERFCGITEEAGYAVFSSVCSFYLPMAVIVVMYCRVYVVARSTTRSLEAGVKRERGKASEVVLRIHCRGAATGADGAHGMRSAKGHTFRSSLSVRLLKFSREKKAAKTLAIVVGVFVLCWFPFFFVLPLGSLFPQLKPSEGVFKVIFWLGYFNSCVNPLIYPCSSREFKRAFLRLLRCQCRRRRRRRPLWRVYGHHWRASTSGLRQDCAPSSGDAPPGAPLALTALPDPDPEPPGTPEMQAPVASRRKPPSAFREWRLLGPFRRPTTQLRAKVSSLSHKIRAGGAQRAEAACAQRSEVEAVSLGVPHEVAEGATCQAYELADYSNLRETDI
# [15] = biological target: T5, Alpha-1B adrenergic receptor (Homo sapiens) (UniProt P35368); assay: Antagonist activity at adrenergic Alpha-1B receptor; type: functional
# T5 sequence (whole entry): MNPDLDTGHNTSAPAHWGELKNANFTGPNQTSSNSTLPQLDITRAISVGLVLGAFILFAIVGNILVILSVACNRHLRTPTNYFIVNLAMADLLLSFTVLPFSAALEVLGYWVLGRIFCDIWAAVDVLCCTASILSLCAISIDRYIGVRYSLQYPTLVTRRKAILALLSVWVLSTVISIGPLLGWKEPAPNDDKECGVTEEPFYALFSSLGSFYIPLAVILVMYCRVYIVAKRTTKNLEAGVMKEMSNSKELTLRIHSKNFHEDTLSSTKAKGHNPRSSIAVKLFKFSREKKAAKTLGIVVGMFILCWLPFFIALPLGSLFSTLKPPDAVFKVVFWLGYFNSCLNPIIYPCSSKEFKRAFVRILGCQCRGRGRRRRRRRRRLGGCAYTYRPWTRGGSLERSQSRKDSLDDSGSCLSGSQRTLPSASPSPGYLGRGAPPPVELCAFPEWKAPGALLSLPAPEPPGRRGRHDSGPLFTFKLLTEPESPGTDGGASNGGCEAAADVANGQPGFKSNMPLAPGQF
# [16] = organism: Rattus norvegicus; assay: Antagonistic activity at alpha 1-adrenoceptor in rat; type: functional, organism-based; details: read-out: pA2 (converted)
# [17] = Dissociation constant, pKb of the compound; type: physicochemical
# [18] = Binding affinity to adrenergic alpha1N receptor
# [19] = Binding affinity to adrenergic alpha1H receptor
# [20] = Binding affinity to adrenergic alpha1L receptor
# [21] = biological target: T6, Alpha-1A adrenergic receptor (Oryctolagus cuniculus) (UniProt O02824); assay: Antagonist activity at rabbit urethra adrenergic alpha1A receptor relative to phenylephrine; type: functional; design: scale not given: the % may be the effect or the level left
# T6 sequence (whole entry): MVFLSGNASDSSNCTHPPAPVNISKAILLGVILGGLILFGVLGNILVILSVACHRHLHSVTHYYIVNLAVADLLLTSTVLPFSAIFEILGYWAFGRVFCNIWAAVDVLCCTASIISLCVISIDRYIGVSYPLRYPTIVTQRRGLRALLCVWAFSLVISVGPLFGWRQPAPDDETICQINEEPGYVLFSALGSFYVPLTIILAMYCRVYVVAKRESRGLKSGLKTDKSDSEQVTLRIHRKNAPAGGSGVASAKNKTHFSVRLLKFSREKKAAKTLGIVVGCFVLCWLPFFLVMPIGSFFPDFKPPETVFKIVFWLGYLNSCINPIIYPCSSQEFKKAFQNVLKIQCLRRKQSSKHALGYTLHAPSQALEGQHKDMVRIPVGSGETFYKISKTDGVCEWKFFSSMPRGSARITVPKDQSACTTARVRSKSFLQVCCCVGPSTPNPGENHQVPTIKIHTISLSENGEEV
# [22] = biological target: T7, Alpha-1A adrenergic receptor (Oryctolagus cuniculus, UniProt O02824); assay: Agonist activity at rabbit urethra adrenergic alpha1A receptor; type: functional
# T7 sequence (O02824 whole entry): T6 sequence (whole entry)
# [23] = biological target: T8, Alpha-1A adrenergic receptor (Rattus norvegicus) (UniProt P43140); assay: (§1) Antagonist activity at rat spleen adrenergic alpha1A receptor; type: functional, tissue-based
# T8 sequence (whole entry): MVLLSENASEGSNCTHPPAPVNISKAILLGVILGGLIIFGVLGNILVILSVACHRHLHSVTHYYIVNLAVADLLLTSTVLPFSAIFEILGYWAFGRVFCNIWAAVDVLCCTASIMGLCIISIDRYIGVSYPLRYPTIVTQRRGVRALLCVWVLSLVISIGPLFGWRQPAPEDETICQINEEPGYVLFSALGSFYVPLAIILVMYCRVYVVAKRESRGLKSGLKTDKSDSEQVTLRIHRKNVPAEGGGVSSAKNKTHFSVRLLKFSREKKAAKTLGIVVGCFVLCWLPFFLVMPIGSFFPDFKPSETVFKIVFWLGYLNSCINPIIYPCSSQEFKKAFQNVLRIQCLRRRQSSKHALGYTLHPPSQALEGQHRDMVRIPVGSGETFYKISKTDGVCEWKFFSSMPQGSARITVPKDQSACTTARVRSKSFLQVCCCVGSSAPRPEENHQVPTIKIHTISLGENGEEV
# [24] = biological target: T9, Alpha-1A adrenergic receptor (Rattus norvegicus, UniProt P43140); assay: as §1; type: functional, tissue-based; details: read-out: pA2 (converted)
# T9 sequence (P43140 whole entry): T8 sequence (whole entry)
# [25] = biological target: T8, Alpha-1A adrenergic receptor (Rattus norvegicus); assay: Antagonist activity at rat spleen adrenergic alpha1A receptor relative to phenylephrine; type: functional, tissue-based; design: scale not given: the % may be the effect or the level left
# [26] = Selectivity for alpha2 adrenergic receptor over alpha1 adrenergic receptor
# [27] = organism: Homo sapiens; assay: Selectivity for human alpha1A adrenergic receptor over human cloned alpha2A adrenergic receptor
# [28] = organism: Homo sapiens; assay: Selectivity for human alpha1A adrenergic receptor over human cloned alpha2B adrenergic receptor
# [29] = organism: Homo sapiens; assay: Selectivity for human alpha1A adrenergic receptor over human cloned Alpha-2C adrenergic receptor
compound,measurement,setting,value
COc1cccc(OC)c1OCCNCC1COc2ccccc2O1 (configuration not stated),Ki,[1],0.54 nM
Nc1nc(-c2ccc(F)cc2)c([C@@H]2CCN(CCCC(=O)c3ccc(F)cc3)C2)s1,Ki,[2],0.54 nM
same,Ki,[3],0.55 nM
same,Ki,[4],2.54 nM
same,Ki,[1]; read-out: Ki,1.4 nM
same,Ki,[5],1.92 nM
CC(C)Oc1ccccc1N1CCN(Cc2cccc(C(=O)N3CCCCC3)c2)CC1 [MAZAPERTINE],Ki,[6],< 4 nM
same,Ki,[7],17 nM
same,Ki,[1]; read-out: Ki,< 4 nM
same,Ki,[8],< 4 nM
same,Ki,[9],165 nM
same,Ki,[10],2880 nM
same,Ki,[11],< 4 nM
same,Ki,[12],0.02 nM
COc1ccc(Cl)cc1N1CCN(CCNC(=O)c2ccco2)CC1.Cl,pA2,[13],8.56
O=C1NCCN1CCN1CCC(c2cn(-c3ccc(F)cc3)c3ccc(Cl)cc23)CC1,Activity,[14],9 nM
same,Activity,[15],3.2 nM
Cc1cc(C)c2c(N)nc(N3CCN(C(=O)c4ccco4)CC3)nc2n1,Kb,[16],15.8 nM
COc1ccccc1N1CCN(CCNC(=O)c2ccco2)CC1.Cl,pA2,[13],9.12
COc1ccccc1OCCN1CCN(c2ccn[nH]c2=O)CC1,pKb,[17],6.18
CN1CCN(C2=Nc3cc(Cl)ccc3Nc3ccccc32)CC1 [CLOZAPINE],Ki,[1]; read-out: Ki,1.4 nM
NC(=O)CN(CCc1ccc(-c2ccccc2)cc1)C(=O)CN(C(=O)CNCCc1ccc(O)cc1)c1ccc(-c2ccccc2)cc1,Ki,[1]; read-out: Ki,310 nM
NC(=O)CN(CCc1ccccc1)C(=O)CN(C(=O)CNCCc1ccc(O)cc1)c1ccc(Oc2ccccc2)cc1,Ki,[1]; read-out: Ki,140 nM
O=C(CCCN1CCC(O)(c2ccc(Cl)cc2)CC1)c1ccc(F)cc1 [HALOPERIDOL],Ki,[1]; read-out: Ki,1 nM
COc1cc2nc(N3CCN(C(=O)c4ccco4)CC3)nc(N)c2cc1OC [PRAZOSIN],Kb,[18],> 2 nM
same,Ki,[1]; read-out: Ki,0.32 nM
same,Kb,[19],< 1 nM
same,Kb,[16],10 nM
same,Kb,[20],> 2 nM
CCS(=O)(=O)Nc1cccc(Cc2c[nH]cn2)c1,Activity,[21],80%
same,EC50,[22],60 nM
same,pD2,[23],6.16
same,Kb,[24],3980 nM
same,Activity,[25],11%
COC(=O)[C@@H]1[C@H]2C[C@H]3c4[nH]c5ccccc5c4CCN3C[C@@H]2CC[C@@H]1O,Kb,[18],< 100 nM
same,Kb,[19],> 300 nM
COc1ccccc1OCCN1CCN(c2ccc(=O)n(Cn3nc(N4CCN(CCOc5ccccc5OC)CC4)ccc3=O)n2)CC1,Selectivity ratio,[26],> 100
COC(=O)C1=C(C)NC(C)=C(C(=O)NCCCN2CCC(c3ccccc3)(c3ccccc3)CC2)C1c1ccc([N+](=O)[O-])cc1 (configuration not stated),Selectivity ratio,[27],> 1000
same,Selectivity ratio,[28],> 1000
same,Selectivity ratio,[29],> 1000
COc1cccc(N2CCN(CCNC(=O)c3ccco3)CC2)c1.Cl,pA2,[13],8.56
NC(=O)CN(CCc1ccccc1)C(=O)CN(C(=O)CNCCc1ccc(O)cc1)c1ccc(-c2ccccc2)cc1,Ki,[1]; read-out: Ki,0.32 nM
